Source: publication PMC8765781, “A platform of assays for the discovery of anti-Zika small-molecules with activity in a 3D-bioprinted outer-blood-retina model” (PLoS ONE, 2022)
Like-named read-outs stand apart in the source and are kept apart here.

What was measured:
[1] = tested on: ZIKV-RLuc (Cambodian strain FSS13025); test: microbe, parasite or virus in culture; assay type: cell-based, Zika virus; settings: for AC50: Zika virus, Vero
[2] = read-out: Log AC50 (M) (converted)

| SMILES | CC-v2 (curve class classification v2 of the dose response curve) [1] | Efficacy (difference between neutral response and maximum compound response) [1] | Max Resp (difference between neutral response and compound response for highest compound concentration) [1] | AC50 [1] [M] | AC50 [1, 2] [M] | AC50 (Vero cells) [µM] | Log AC50 (M) (Vero cells) |
| --- | --- | --- | --- | --- | --- | --- | --- |
| COC(=O)C1(Cc2ccc(O)c(CC=C(C)C)c2)OC(=O)C(OC)=C1c1cc(O)c(O)c(CC=C(C)C)c1 (centres unmarked) [NCGC00347732-02] | -1.1 | -101.002 | -99.456 | 9.28e-06 | 9.27e-06 | 9.28 | -5.0327 |
| CC(C)=CCCC(C)(O)CCCC(C)(O)CCCC(C)(O)CCCC(C)(O)CCCC(C)(O)CCCC(C)(O)C(O)CC/C(C)=C/CC/C(C)=C/CO[C@@H]1O[C@H](CO)[C@@H](O)[C@H](O)[C@H]1O (some centres unmarked) [NCGC00347748-02] | -1.1 | -100.94 | -99.117 | 3.62e-06 | 3.62e-06 | 3.62 | -5.4408 |
| CC(=O)OC1C=C(CO)C(=O)C(OC(=O)CC(C)C)C1C(C)C (centres unmarked) [NCGC00347760-02] | -3 | -123.001 | -99.998 | 3.69e-05 | 3.69e-05 | 36.9 | -4.4327 |
| CC(C)(C)OC(=O)N[C@@H](Cc1ccc(O[S+](=O)([O-])c2cccc3cnccc23)cc1)C(=O)N1CCCN(C(=O)OC(C)(C)C)CC1 [NCGC00348020-01] | -3 | -104.596 | -83.301 | 3.69e-05 | 3.69e-05 | 36.9 | -4.4327 |
| CC1OC(OC2C(OC3C(OC4CCC5(C)C(CCC6(C)C5CC=C5C7CC(C)(C)CCC7(C(=O)O)C(O)CC56C)C4(C)C)OC(C(=O)O)C(O)C3O)OC(CO)C(OC3OCC(O)C(OC4OC(CO)C(O)C4O)C3O)C2OC2OC(C)C(O)C(O)C2O)C(O)C(O)C1O (centres unmarked) [NCGC00380107-01] | -2.1 | -79.638 | -81.884 | 1.28e-05 | 1.28e-05 | 12.8 | -4.894 |
| C[C@@H]1O[C@@H](O[C@H]2[C@H](OC(=O)[C@]34CCC(C)(C)C[C@H]3C3=CCC5[C@@]6(C)C[C@H](O)[C@H](O[C@@H]7O[C@H](C(=O)O)[C@@H](O)[C@H](O)[C@H]7O)[C@@](C)(CO)C6[C@H](O)C[C@@]5(C)[C@]3(C)CC4)OC[C@H](O)[C@@H]2O)[C@H](O)[C@H](O)[C@H]1O[C@@H]1OC[C@@H](O)[C@H](O[C@@H]2OC[C@](O)(CO)[C@H]2O)[C@H]1O (some centres unmarked) [NCGC00380219-01] | -2.1 | -96.8 | -99.643 | 1.16e-05 | 1.16e-05 | 11.6 | -4.9345 |
| COC1C(O)C(OC2CCC3(C)C(CCC4C3CCC3(C)C(C5=CC(=O)OC5)CCC43O)C2)OC(C)C1OC1OC(COC2OC(CO)C(O)C(O)C2O)C(O)C(O)C1O (centres unmarked) [NCGC00380220-01] | -1.1 | -95.552 | -99.662 | 1.29e-06 | 1.29e-06 | 1.29 | -5.8908 |
| CC1CCCC(SCC(O)C(=O)O)CC(=O)c2c(O)cc(O)cc2CC(=O)O1 (centres unmarked) [NCGC00380419-01] | -3 | -93.408 | -77.007 | 1.82e-05 | 1.82e-05 | 18.2 | -4.7408 |
| C/C(=C\CO)CC/C=C(\C)CCC(O)C(C)(O)CCCC(C)(O)CCCC(C)(O)CCCC(C)(O)CCCC(C)(O)CCCC(C)(O)CCCC(C)(C)O (centres unmarked) [NCGC00381040-01] | -1.1 | -92.604 | -99.402 | 1.44e-06 | 1.44e-06 | 1.44 | -5.8408 |
| COc1ccc2c(c1)CN(C(=O)CCN1CCC(Cc3ccccc3)CC1)CCS2 [NCGC00384450-01] | -3 | -97.233 | -83.243 | 3.69e-05 | 3.69e-05 | 36.9 | -4.4327 |
| C=C(C)[C@H]1CCC(C)=C[C@@H]1c1c(O)cc(CCCCC)cc1O [NCGC00385066-01] | -3 | -124.845 | -99.067 | 3.69e-05 | 3.69e-05 | 36.9 | -4.4327 |
